Source: ChEMBL document CHEMBL1201862, “PubChem BioAssay data set” (2004)
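Growth conditions: 96-well plates. Treatment: test compound, 48 hours, 5 concentrations. Analysis: linear interpolation between bracketing concentrations; unreached endpoints set to highest concentration. Abbreviation: GI50, concentration required for 50% inhibition of growth.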 Calls of active or inactive are those of the source. Rule as the data show it: active = GI50 up to about 1.1 µM and inactive = higher.

How the values were obtained:
Test in all cases: NCI-60 cell line screen, 48 h
SNB-75 = tested on: SNB-75
SN12C = tested on: SN12C
NCI-H522 = tested on: NCI-H522
PC-3 = tested on: PC-3
MDA-MB-231 = tested on: MDA-MB-231
SK-OV-3 = tested on: SK-OV-3
KM12 = tested on: KM12
SR = tested on: SR
COLO 205 = tested on: COLO 205
OVCAR-4 = tested on: OVCAR-4
SF-295 = tested on: SF-295
RXF 393 = tested on: RXF 393
A549 = tested on: A549
DU-145 = tested on: DU-145
SK-MEL-5 = tested on: SK-MEL-5
U-251 = tested on: U-251
HL-60 = tested on: HL-60
SF-268 = tested on: SF-268
Malme-3M = tested on: Malme-3M
HOP-92 = tested on: HOP-92

| SMILES | GI50 (SNB-75) | GI50 (SN12C) | GI50 (NCI-H522) | GI50 (PC-3) | GI50 (MDA-MB-231) | GI50 (SK-OV-3) | GI50 (KM12) | GI50 (SR) | GI50 (COLO 205) | GI50 (OVCAR-4) | GI50 (SF-295) | GI50 (RXF 393) | GI50 (A549) | GI50 (DU-145) | GI50 (SK-MEL-5) | GI50 (U-251) | GI50 (HL-60) | GI50 (SF-268) | GI50 (Malme-3M) | GI50 (HOP-92) |
| --- | --- | --- | --- | --- | --- | --- | --- | --- | --- | --- | --- | --- | --- | --- | --- | --- | --- | --- | --- | --- |
| N#C/C(=C/NC(=S)NCc1ccccc1)C(N)=O | > 100 µM (inactive) | > 100 µM (inactive) | > 100 µM (inactive) | > 100 µM (inactive) | > 100 µM (inactive) | > 100 µM (inactive) | > 100 µM (inactive) | > 100 µM (inactive) | > 100 µM (inactive) | > 100 µM (inactive) | > 100 µM (inactive) | > 100 µM (inactive) | > 100 µM (inactive) | > 100 µM (inactive) | > 100 µM (inactive) | > 100 µM (inactive) | > 100 µM (inactive) | > 100 µM (inactive) | > 100 µM (inactive) | > 100 µM (inactive) |
| [O-]c1c[n+](CC[n+]2cc([O-])on2)no1 | > 100 µM (inactive) | > 100 µM (inactive) | > 100 µM (inactive) | > 100 µM (inactive) | > 100 µM (inactive) | > 100 µM (inactive) | > 100 µM (inactive) | > 100 µM (inactive) | > 100 µM (inactive) | > 100 µM (inactive) | > 100 µM (inactive) | > 100 µM (inactive) | > 100 µM (inactive) | > 100 µM (inactive) | > 100 µM (inactive) | > 100 µM (inactive) | > 100 µM (inactive) | > 100 µM (inactive) | > 100 µM (inactive) | > 100 µM (inactive) |
| COc1cc([C@@H]2c3cc4c(cc3[C@H](OC3OC5COC(C(C)C)OC5C(O)C3O)C3COC(=O)[C@@H]32)OCO4)cc(OC)c1OC (stereo not given in full) | 11.6 µM (inactive) | 19.5 µM (inactive) | 3.24 µM (inactive) | 4.89 µM (inactive) | 5.77 µM (inactive) | 6.32 µM (inactive) | 3.61 µM (inactive) | 2.11 µM (inactive) | 4.59 µM (inactive) | 16.6 µM (inactive) | 3.47 µM (inactive) | 2.3 µM (inactive) | 3.96 µM (inactive) | 11.7 µM (inactive) | 5.55 µM (inactive) | 3.93 µM (inactive) | 3.85 µM (inactive) | 5.81 µM (inactive) | 4.57 µM (inactive) | 6.85 µM (inactive) |
| COc1ccc(-c2nc(-c3cc4ccccc4oc3=O)cs2)cc1 | 52.2 µM (inactive) | 44.5 µM (inactive) | > 100 µM (inactive) | > 100 µM (inactive) | 20.9 µM (inactive) | 29.6 µM (inactive) | > 100 µM (inactive) | > 100 µM (inactive) | > 100 µM (inactive) | > 100 µM (inactive) | > 100 µM (inactive) | 85.3 µM (inactive) | 85.7 µM (inactive) | > 100 µM (inactive) | > 100 µM (inactive) | 21.9 µM (inactive) | > 100 µM (inactive) | 61.2 µM (inactive) | > 100 µM (inactive) | 60.8 µM (inactive) |
| C=C(Cl)C(Cl)(CBr)CCC(Cl)C(C)C (stereo not given) | 0.323 µM (active) | 13.2 µM (inactive) | 5.93 µM (inactive) | 1.68 µM (inactive) | 3.95 µM (inactive) | 26.4 µM (inactive) | 1.23 µM (inactive) | > 36.6 µM (inactive) | 4.79 µM (inactive) | 8.17 µM (inactive) | 2.22 µM (inactive) | 6.3 µM (inactive) | 8.53 µM (inactive) | 1.37 µM (inactive) | 17.7 µM (inactive) | 0.647 µM (active) | 0.226 µM (active) | 1.72 µM (inactive) | 8.28 µM (inactive) | 1.6 µM (inactive) |
| CCC1(C)N=c2c(ncn2N=C(C)C)=C(C(N)=O)N1 (stereo not given) | > 100 µM (inactive) | > 100 µM (inactive) | > 100 µM (inactive) | > 100 µM (inactive) | > 100 µM (inactive) | > 100 µM (inactive) | 22.6 µM (inactive) | > 100 µM (inactive) | > 100 µM (inactive) | > 100 µM (inactive) | > 100 µM (inactive) | > 100 µM (inactive) | > 100 µM (inactive) | > 100 µM (inactive) | > 100 µM (inactive) | > 100 µM (inactive) | > 100 µM (inactive) | > 100 µM (inactive) | > 100 µM (inactive) | 0.426 µM (active) |
| Br[Se]c1ccccn1 | 17 µM (inactive) | 18.7 µM (inactive) | 16.4 µM (inactive) | 16.4 µM (inactive) | 17.7 µM (inactive) | 20.5 µM (inactive) | 17.3 µM (inactive) | 23.4 µM (inactive) | 17.1 µM (inactive) | 16.9 µM (inactive) | 4.5 µM (inactive) | 17.2 µM (inactive) | 21.6 µM (inactive) | 16.7 µM (inactive) | 15.6 µM (inactive) | 15.6 µM (inactive) | 17.6 µM (inactive) | 18.2 µM (inactive) | 17.4 µM (inactive) | 18.5 µM (inactive) |
| O=C1OC2(c3ccc(O)cc3Oc3cc(O)ccc32)c2c1c(-c1ccccc1)c(-c1ccccc1)c(-c1ccccc1)c2-c1ccccc1 | 18.7 µM (inactive) | 25.1 µM (inactive) | 18.2 µM (inactive) | 17.9 µM (inactive) | 18.7 µM (inactive) | 39 µM (inactive) | 17.1 µM (inactive) | 22.6 µM (inactive) | 19.3 µM (inactive) | 27.8 µM (inactive) | 21.6 µM (inactive) | 23.7 µM (inactive) | 34.5 µM (inactive) | 17.2 µM (inactive) | 27.7 µM (inactive) | 17.7 µM (inactive) | 14.8 µM (inactive) | 22.2 µM (inactive) | 23.5 µM (inactive) | 20 µM (inactive) |
| COc1ccc2c3c1OC1C(OC)(OC)C=C[C@@]4(Br)[C@@H](C2)N(CC2CC2)CC[C@]314 (stereo not given in full) | 96.4 µM (inactive) | > 100 µM (inactive) | 21 µM (inactive) | 99.1 µM (inactive) | 45.6 µM (inactive) | > 100 µM (inactive) | > 100 µM (inactive) | > 100 µM (inactive) | 31.8 µM (inactive) | 43.7 µM (inactive) | > 100 µM (inactive) | 76.4 µM (inactive) | 95.7 µM (inactive) | > 100 µM (inactive) | 37.6 µM (inactive) | > 100 µM (inactive) | > 100 µM (inactive) | 32.1 µM (inactive) | 37.1 µM (inactive) | 23.8 µM (inactive) |
| Nc1cc2c(c3ccccc13)C(CCl)CN2C(=O)c1cc2cc(NC(=O)c3cc4ccccc4o3)ccc2[nH]1 (stereo not given) | 0.00294 µM (active) | 0.00345 µM (active) | 0.000925 µM (active) | 0.00513 µM (active) | 0.0221 µM (active) | 0.11 µM (active) | 0.00296 µM (active) | 0.47 µM (active) | 0.0056 µM (active) | 0.00209 µM (active) | 0.11 µM (active) | 0.11 µM (active) | 0.000891 µM (active) | 0.000679 µM (active) | 0.000787 µM (active) | 0.00281 µM (active) | 0.000264 µM (active) | 0.00195 µM (active) | 0.00213 µM (active) | 0.0357 µM (active) |
| CCOC(=O)c1c(N2CCOCC2)[nH]c(=O)c(C(c2c(Cl)cccc2Cl)c2c(O)c(C(=O)OCC)c(N3CCOCC3)[nH]c2=O)c1O | 6.7 µM (inactive) | 4.92 µM (inactive) | 1.83 µM (inactive) | 15.5 µM (inactive) | 12.3 µM (inactive) | 11.2 µM (inactive) | 16.9 µM (inactive) | 3.97 µM (inactive) | 4.34 µM (inactive) | 9.84 µM (inactive) | 16 µM (inactive) | 2.19 µM (inactive) | 18.2 µM (inactive) | 12.2 µM (inactive) | 4.55 µM (inactive) | 4.8 µM (inactive) | 1.96 µM (inactive) | 8.22 µM (inactive) | 2.49 µM (inactive) | 2.09 µM (inactive) |
| O=C(O)CCC1(c2ccccc2)NC(=O)NC1=O (stereo not given) | > 100 µM (inactive) | > 100 µM (inactive) | > 100 µM (inactive) | > 100 µM (inactive) | > 100 µM (inactive) | > 100 µM (inactive) | > 100 µM (inactive) | > 100 µM (inactive) | > 100 µM (inactive) | > 100 µM (inactive) | > 100 µM (inactive) | > 100 µM (inactive) | > 100 µM (inactive) | > 100 µM (inactive) | > 100 µM (inactive) | > 100 µM (inactive) | > 100 µM (inactive) | > 100 µM (inactive) | > 100 µM (inactive) | > 100 µM (inactive) |
| COc1cc(/C=C2\CCC(C)C3=C(c4cc(OC)c(OC)c(OC)c4)C(C#N)=C(N)OC32)cc(OC)c1OC (stereo not given) | 1.36 µM (inactive) | 3.21 µM (inactive) | 2.42 µM (inactive) | 1.83 µM (inactive) | 2.45 µM (inactive) | 5.32 µM (inactive) | 3.86 µM (inactive) | 1.49 µM (inactive) | 2.11 µM (inactive) | 2.97 µM (inactive) | 3.65 µM (inactive) | 1.65 µM (inactive) | 3.46 µM (inactive) | 5.09 µM (inactive) | 2.61 µM (inactive) | 3.08 µM (inactive) | 1.67 µM (inactive) | 3.59 µM (inactive) | 2.59 µM (inactive) | 3.17 µM (inactive) |
| O=Cc1c2ccccc2n2ccc3c4ccccc4[nH]c3c12 | > 10 µM (inactive) | > 10 µM (inactive) | > 10 µM (inactive) | > 10 µM (inactive) | > 10 µM (inactive) | > 10 µM (inactive) | 0.344 µM (active) | 8.77 µM (inactive) | > 10 µM (inactive) | > 10 µM (inactive) | > 10 µM (inactive) | > 10 µM (inactive) | > 10 µM (inactive) | > 10 µM (inactive) | > 10 µM (inactive) | > 10 µM (inactive) | > 10 µM (inactive) | > 10 µM (inactive) | > 10 µM (inactive) | > 10 µM (inactive) |
